According to ChEMBL document CHEMBL2163222 (J Med Chem, 2012):
pIC50: −log10 of the molar value. The source made the active and inactive calls. The calls are words filed in the database; no cut-off is given here.

Tests used:
[1] = test system: T98G; assay: cells; conditions: Homo sapiens, 72 h
[2] = test system: OE33; assay: Growth inhibition of human OE33 cells after 3 days by MTT assay; format: functional, cell-based; conditions: OE33, 72 h
[3] = Cytostatic activity in human U373 cells at 64 uM assessed global growth ratio after 72 hrs by quantitative video microscopy; format: functional, U-373MG ATCC
[4] = test system: Hs 683; assay: cells; conditions: Homo sapiens, Hs 683, 72 h
[5] = cells; conditions: Homo sapiens, U373 MG, 72 h
[6] = Growth inhibition of human OE21 cells after 3 days by MTT assay; format: functional, cell-based; conditions: OE21, 72 h
[7] = biological target: Dual specificity tyrosine-phosphorylation-regulated kinase 1A (Homo sapiens, UniProt Q13627); assay: Inhibition of DYRK1A kinase using RBER-CHKtide substrate by radiometric protein kinase assay
[8] = Cytostatic activity in human U373 cells at 31 uM assessed global growth ratio after 72 hrs by quantitative video microscopy; format: functional, U-373MG ATCC
[9] = Cytostatic activity in human U373 cells at 18 uM assessed global growth ratio after 72 hrs by quantitative video microscopy; format: functional, U-373MG ATCC
[10] = Solubility of compound at pH 7.4; format: physicochemical; conditions: buffer
[11] = Cytostatic activity in human U373 cells at 24 uM assessed global growth ratio after 72 hrs by quantitative video microscopy; format: functional, U-373MG ATCC
[12] = Inhibition of eIF2 protein expression in human U373 cells at 1 uM after 4 hrs by Western blotting method; format: functional, cell-based; conditions: U-373MG ATCC
[13] = test system: Hs 683; assay: Inhibition of eIF2 activity in human Hs683 cells at 5 uM after 4 hrs by Western blotting method; format: functional, cell-based
[14] = biological target: MAP kinase-interacting serine/threonine-protein kinase 1 (Homo sapiens) (UniProt Q9BUB5); assay: Inhibition of MKNK1 assessed as residual enzyme activity at 10 uM by radiometric protein kinase assay
Sequence of MAP kinase-interacting serine/threonine-protein kinase 1 (Homo sapiens) (Q9BUB5 whole entry, looked up): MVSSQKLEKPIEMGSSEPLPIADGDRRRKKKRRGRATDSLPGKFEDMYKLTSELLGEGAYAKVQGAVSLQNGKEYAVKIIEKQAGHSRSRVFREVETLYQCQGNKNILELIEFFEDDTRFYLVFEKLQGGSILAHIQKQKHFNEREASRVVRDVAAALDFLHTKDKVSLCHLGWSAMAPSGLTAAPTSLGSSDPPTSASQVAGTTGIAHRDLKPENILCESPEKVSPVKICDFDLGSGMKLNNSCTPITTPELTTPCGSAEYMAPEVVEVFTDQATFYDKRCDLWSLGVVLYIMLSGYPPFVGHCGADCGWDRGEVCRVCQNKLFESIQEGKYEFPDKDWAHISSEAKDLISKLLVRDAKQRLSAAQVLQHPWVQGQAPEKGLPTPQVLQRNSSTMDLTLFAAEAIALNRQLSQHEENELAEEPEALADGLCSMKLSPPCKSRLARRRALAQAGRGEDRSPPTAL

[15] = biological target: Tyrosine-protein kinase Fer (Homo sapiens) (UniProt P16591); assay: Inhibition of FER assessed as residual enzyme activity at 10 uM by radiometric protein kinase assay
[16] = Inhibition of eIF2 protein expression in human Hs683 cells at 5 uM after 4 hrs by Western blotting method; format: functional, cell-based; conditions: Hs 683
[17] = biological target: Tyrosine-protein kinase Tec (Homo sapiens) (UniProt P42680); assay: Inhibition of TEC assessed as residual enzyme activity at 10 uM by radiometric protein kinase assay
Sequence of Tyrosine-protein kinase Tec (Homo sapiens) (P42680 whole entry): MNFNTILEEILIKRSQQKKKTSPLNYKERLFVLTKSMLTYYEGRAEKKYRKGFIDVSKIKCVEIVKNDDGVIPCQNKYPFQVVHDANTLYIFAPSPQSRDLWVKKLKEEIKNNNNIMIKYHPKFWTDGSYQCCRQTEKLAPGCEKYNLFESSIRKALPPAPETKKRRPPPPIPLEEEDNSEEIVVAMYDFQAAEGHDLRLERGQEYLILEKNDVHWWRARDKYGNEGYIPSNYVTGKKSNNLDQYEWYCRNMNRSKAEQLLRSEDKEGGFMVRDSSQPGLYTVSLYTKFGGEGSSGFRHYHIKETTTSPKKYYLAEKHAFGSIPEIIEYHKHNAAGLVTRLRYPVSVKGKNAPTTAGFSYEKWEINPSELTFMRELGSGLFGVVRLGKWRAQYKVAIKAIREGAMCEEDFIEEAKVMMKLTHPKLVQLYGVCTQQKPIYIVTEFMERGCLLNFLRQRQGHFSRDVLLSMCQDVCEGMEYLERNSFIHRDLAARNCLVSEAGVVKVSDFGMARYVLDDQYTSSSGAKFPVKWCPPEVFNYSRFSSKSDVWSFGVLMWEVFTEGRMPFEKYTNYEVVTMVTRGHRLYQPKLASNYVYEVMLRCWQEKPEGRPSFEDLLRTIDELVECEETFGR

[18] = biological target: TGF-beta receptor type-1 (Homo sapiens) (UniProt P36897); assay: Inhibition of TGFB-R1 assessed as residual enzyme activity at 10 uM by radiometric protein kinase assay
Sequence of TGF-beta receptor type-1 (Homo sapiens) (P36897 whole entry): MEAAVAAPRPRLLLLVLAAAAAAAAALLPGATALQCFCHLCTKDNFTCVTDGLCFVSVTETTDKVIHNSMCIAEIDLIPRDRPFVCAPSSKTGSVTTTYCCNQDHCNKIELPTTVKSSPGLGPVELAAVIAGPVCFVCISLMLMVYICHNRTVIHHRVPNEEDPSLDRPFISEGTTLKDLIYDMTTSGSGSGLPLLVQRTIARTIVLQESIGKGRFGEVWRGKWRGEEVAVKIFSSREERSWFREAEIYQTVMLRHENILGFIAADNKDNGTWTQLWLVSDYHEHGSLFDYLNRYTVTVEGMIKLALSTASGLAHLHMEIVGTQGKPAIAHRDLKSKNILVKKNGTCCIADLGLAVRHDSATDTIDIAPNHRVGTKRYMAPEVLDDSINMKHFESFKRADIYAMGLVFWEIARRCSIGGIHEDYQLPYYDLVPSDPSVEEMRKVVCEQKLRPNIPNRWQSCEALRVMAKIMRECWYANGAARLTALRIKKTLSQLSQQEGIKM

[19] = biological target: Myosin light chain kinase 2, skeletal/cardiac muscle (Homo sapiens) (UniProt Q9H1R3); assay: Inhibition of MYLK2 assessed as residual enzyme activity at 10 uM by radiometric protein kinase assay
[20] = biological target: Calcium/calmodulin-dependent protein kinase type II subunit delta (Homo sapiens) (UniProt Q13557); assay: Inhibition of CAMK2D assessed as residual enzyme activity at 10 uM by radiometric protein kinase assay
[21] = test system: U-373MG ATCC; assay: Inhibition of eIF2 activity in human U373 cells at 1 uM after 4 hrs by Western blotting method; format: functional, cell-based
[22] = biological target: Calcium/calmodulin-dependent protein kinase type II subunit alpha (Homo sapiens) (UniProt Q9UQM7); assay: Inhibition of CAMK2A assessed as residual enzyme activity at 10 uM by radiometric protein kinase assay
[23] = biological target: Serine/threonine-protein kinase 17A (Homo sapiens) (UniProt Q9UEE5); assay: Inhibition of STK17A assessed as residual enzyme activity at 10 uM by radiometric protein kinase assay
Sequence of Serine/threonine-protein kinase 17A (Homo sapiens) (Q9UEE5 whole entry): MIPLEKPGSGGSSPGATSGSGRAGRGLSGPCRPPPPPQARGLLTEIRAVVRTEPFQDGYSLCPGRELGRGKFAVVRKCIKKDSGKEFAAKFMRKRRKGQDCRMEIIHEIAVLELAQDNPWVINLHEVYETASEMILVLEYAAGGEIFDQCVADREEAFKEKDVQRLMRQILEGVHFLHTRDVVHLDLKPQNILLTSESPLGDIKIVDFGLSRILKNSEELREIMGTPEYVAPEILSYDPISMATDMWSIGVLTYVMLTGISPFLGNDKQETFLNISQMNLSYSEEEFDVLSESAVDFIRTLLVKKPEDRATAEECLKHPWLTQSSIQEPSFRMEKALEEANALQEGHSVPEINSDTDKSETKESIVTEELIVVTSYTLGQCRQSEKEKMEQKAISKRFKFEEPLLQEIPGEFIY

[24] = biological target: Myosin light chain kinase, smooth muscle (Homo sapiens) (UniProt Q15746); assay: Inhibition of MYLK assessed as residual enzyme activity at 10 uM by radiometric protein kinase assay
Sequence of Myosin light chain kinase, smooth muscle (Homo sapiens) (Q15746 whole entry): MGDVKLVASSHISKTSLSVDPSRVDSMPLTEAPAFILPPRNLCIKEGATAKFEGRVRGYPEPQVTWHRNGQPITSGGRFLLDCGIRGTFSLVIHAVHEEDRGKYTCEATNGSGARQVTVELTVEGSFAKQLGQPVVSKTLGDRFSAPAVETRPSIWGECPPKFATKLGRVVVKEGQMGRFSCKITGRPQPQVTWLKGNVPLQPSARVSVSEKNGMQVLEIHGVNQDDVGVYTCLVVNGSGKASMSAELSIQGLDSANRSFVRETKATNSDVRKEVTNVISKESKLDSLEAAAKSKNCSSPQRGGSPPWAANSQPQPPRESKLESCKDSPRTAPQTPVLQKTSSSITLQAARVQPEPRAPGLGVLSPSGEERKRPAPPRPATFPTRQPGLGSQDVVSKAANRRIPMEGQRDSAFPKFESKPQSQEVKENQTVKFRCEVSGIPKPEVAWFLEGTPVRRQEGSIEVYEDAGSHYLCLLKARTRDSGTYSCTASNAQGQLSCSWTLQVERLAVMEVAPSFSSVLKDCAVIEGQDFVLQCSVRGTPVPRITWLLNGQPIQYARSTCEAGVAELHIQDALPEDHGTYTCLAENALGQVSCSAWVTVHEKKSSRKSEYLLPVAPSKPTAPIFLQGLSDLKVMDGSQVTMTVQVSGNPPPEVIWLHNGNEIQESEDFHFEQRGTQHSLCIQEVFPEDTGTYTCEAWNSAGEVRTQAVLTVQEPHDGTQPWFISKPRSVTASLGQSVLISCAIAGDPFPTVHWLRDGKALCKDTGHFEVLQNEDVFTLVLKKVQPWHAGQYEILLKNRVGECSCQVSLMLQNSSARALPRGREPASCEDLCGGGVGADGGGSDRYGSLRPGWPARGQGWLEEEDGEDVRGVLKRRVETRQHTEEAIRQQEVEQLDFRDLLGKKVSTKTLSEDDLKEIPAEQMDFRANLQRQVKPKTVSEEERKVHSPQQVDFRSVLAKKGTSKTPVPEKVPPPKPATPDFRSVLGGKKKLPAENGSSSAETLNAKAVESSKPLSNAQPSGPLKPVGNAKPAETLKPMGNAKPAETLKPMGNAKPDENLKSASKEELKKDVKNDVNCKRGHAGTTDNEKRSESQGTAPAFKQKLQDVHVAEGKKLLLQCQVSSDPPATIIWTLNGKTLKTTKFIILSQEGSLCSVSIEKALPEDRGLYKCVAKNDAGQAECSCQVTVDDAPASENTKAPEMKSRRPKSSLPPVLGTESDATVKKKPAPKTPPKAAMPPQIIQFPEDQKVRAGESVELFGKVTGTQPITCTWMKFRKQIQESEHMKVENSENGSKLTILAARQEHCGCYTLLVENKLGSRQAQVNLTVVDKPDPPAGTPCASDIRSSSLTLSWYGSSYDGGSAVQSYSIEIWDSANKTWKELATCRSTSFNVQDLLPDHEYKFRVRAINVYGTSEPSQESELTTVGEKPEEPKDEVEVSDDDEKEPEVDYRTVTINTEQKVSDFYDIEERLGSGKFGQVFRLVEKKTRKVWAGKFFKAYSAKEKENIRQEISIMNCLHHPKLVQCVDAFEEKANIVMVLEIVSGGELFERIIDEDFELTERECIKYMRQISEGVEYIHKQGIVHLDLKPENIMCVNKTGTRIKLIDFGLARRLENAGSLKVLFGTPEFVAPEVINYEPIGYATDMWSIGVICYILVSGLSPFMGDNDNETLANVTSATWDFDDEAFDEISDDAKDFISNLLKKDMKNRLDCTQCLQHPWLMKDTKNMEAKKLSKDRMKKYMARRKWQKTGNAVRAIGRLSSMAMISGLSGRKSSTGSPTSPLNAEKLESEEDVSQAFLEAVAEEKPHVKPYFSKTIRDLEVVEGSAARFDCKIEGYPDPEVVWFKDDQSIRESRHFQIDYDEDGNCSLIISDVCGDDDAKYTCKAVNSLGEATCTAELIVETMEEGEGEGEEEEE

[25] = species on record: Mus musculus; assay: Toxicity in mouse assessed as drug tolerance; format: organism-based; conditions: in vivo
[26] = biological target: Tyrosine-protein kinase CSK (Homo sapiens) (UniProt P41240); assay: Inhibition of CSK assessed as residual enzyme activity at 10 uM by radiometric protein kinase assay
Sequence of Tyrosine-protein kinase CSK (Homo sapiens) (P41240 whole entry, looked up): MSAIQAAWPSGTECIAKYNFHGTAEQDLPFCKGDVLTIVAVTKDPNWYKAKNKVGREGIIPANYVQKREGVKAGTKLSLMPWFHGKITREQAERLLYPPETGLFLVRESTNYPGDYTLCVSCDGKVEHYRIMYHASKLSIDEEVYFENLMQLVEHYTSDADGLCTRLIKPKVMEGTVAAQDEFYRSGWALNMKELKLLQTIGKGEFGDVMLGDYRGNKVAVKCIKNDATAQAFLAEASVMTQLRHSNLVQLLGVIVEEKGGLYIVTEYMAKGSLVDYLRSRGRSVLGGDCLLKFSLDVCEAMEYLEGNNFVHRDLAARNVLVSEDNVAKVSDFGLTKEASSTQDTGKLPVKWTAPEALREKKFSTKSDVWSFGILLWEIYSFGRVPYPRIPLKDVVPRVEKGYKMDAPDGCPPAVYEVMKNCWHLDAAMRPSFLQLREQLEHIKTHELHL

[27] = Cytostatic activity in human U373 cells at 0.9 uM assessed global growth ratio after 72 hrs by quantitative video microscopy; format: functional, U-373MG ATCC
[28] = biological target: TGF-beta receptor type-2 (Homo sapiens) (UniProt P37173); assay: Inhibition of TGFB-R2 assessed as residual enzyme activity at 10 uM by radiometric protein kinase assay
Sequence of TGF-beta receptor type-2 (Homo sapiens) (P37173 whole entry): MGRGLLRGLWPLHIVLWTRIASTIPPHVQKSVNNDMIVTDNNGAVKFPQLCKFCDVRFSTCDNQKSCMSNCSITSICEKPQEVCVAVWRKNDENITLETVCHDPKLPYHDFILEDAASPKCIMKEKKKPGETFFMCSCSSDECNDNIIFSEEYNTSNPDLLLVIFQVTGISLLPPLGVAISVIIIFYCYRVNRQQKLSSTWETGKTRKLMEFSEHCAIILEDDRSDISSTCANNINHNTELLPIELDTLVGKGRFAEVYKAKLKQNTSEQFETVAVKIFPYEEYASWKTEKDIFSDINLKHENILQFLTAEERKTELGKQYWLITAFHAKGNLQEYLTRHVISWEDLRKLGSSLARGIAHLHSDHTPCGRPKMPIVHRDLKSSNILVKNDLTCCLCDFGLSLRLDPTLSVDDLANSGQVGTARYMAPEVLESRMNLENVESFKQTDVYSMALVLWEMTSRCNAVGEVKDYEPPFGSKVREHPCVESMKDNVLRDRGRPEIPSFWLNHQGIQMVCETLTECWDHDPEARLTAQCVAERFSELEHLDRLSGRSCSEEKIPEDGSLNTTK

| Compound | pIC50 [1] | pIC50 [2] | pIC50 [4] | pIC50 [5] | pIC50 [6] | pIC50 [7] | other results |
| --- | --- | --- | --- | --- | --- | --- | --- |
| COCCOc1ccc2c(c1)[nH]c1c(C)nccc12 | 4.21 | 4.18 | 4.28 | 4.19 | 4.28 | 4.80 | Ratio [3]: 0.23 |
| Cc1nccc2c3ccc(OCC4CCCCC4)cc3n(CC3CCCCC3)c12 | 4.49 | 4.82 | 4.52 | 4.51 | 4.77 | < 5.00 | Ratio [8]: 0.17 |
| Cc1nccc2c3ccc(OCc4ccccc4)cc3n(Cc3ccccc3)c12 | 4.44 | 4.40 | 4.48 | 4.74 | 4.55 | – | Ratio [9]: 0.3; solubility ([10]; read-out: solubility): < 3 µM |
| Cc1nccc2c1[nH]c1cc(OCc3cccnc3)ccc12 | 4.54 | 4.51 | 4.52 | 4.62 | 4.55 | 5.00 | Ratio [11]: 0.29 |
| Cc1c2c(cc[n+]1Cc1ccc(F)cc1)c1ccc(OCc3cccc(F)c3)cc1n2Cc1cccc(F)c1.[Br-] | 5.72 | 5.47 | 5.35 | 6.05 | 5.54 | – | inhibition [12]: Active; inhibition [13]: Active; Activity [14]: 10%; Activity [15]: 7%; inhibition [16]: Active; Activity [17]: 8%; Activity [18]: 6%; Activity [19]: 7%; Activity [20]: 2%; inhibition [21]: Active; Activity [22]: 1%; Activity [23]: < 1%; Activity [24]: 2%; solubility [10]: 53 µM; Activity [25]: Non-toxic; Activity [26]: 10%; Ratio [27]: 0.53; Activity [28]: 6% |
